Laboratory results as given in patent US20020110601A1, “Antineoplastic platinum therapeutic method and composition” (priority 2000, published 2002).

Tests used:
[1] = test system: malignant pleural mesothelioma; experiment: Intrapleural administration in malignant pleural mesothelioma: indwelling catheter versus needle; design: species or system human; settings: in vivo
Description: The first cycle of platinum drug by the present invention was administered 7 days after a baseline thoracoscopy. […] The starting fluid volume infused was 225 ml. Dosages of up to about 450 mg/M^2 are useful, but the empirical end point is compromised respiration such as shortness of breath. […] Repeated administrations were given every 3 to 4 weeks with attention to the presence or absence of a draining pleural effusion without loculation or (adhesions). That is a loculation surrounding the catheter entry must be broken u or carefully drained at the time of additional drug introduction to avoid hydrostatic pressure increases. […] If the fluid was still draining through the indwelling catheter, the patient received a third treatment seven days after the this thoracoscopy. […] While the course of treatment is within the skill of the medical professional with a view to the presenting condition of each patient, some initial parameters are noted. Intrapleural infusion is usefully held between consecutive cycles until the absolute granulocyte count is >1,500/mm^3 and platelets >100,000/mm^3 and complete recovery of non-hematological toxicities.

[2] = test system: malignant pleural effusions; settings: human, in vivo
Description: A Phase I trial using the procedures of the present invention employed L-NDDP administered by intrapleural administration in patients with malignant pleural effusions.
Therapy began with a starting dose was 75 mg/m^2. […] Four patients were treated at the highest tested dose of 550 mg/m^2.

[3] = in vivo, iv; cited from earlier work

With “liposomal-cis-bis-neodecanoato-trans-R,R-1,2-diaminocyclohexane platinum (II) [L-NDDP]” the extravasation and sepsis [1] was “avoided extravasation and sepsis”, the local pain [2] was “no local pain” and the toxicity [2] was “mild nausea and vomiting”. For the same substance, the systemic toxicity ([2]; iv) was “No systemic toxicity” and the dose limiting toxicity [3] was “myelosuppression”.
